Test results as given in US20130053434A1, “IRREVERSIBLE INHIBITORS USEFUL FOR THE TREATMENT OF KINASE-RELATED PATHOLOGIES” (CENTRE NATIONAL DE LA RECHERCHE SCIENTIFIQUE, priority 2009, published 2013).

Key:
[1] = reactivity with DTT as prototypical thiol nucleophile; assay type: physicochemical; conditions: one equivalent of DTT (2 mM), PBS pH 7.4, 1% DMSO
Description: To gage the undiscriminate reactivity of these enone resorcylic acids with thiols, fluoroenone 2 and the parent analogue lacking the fluoride were treated with one equivalent of DTT (2 mM) as a prototypical thiol nucleophile in PBS (pH 7.4) containing 1% DMSO. […] With fluoroenone 1 and 2 in hand, we tested their efficacy against VEGF-R2 which was frequently found to be the most inhibited kinase in our profile of cis-enone resorcylic acid library (Dakas, P. Y., et al. (2007) Angew. Chem. Int. Ed. Engl. 46, 6899-902; Jogireddy, R., et al. (2009) Chem. Eur. J. 15, 11498-506) and KIT which represents a less inhibited kinase. […] Their cellular activity against VEGF-R2 did parallel the biochemical activity. […] During the course of our investigation, a similar modification was reported by researchers from Esai (Du, H., et al. (2009) Bioorg. Med. Chem. Lett. 19, 6196-9) however, their medicinal chemistry efforts focused the inhibition of inflammation related pathways (MEKs and their down-stream regulatory effect on cytokines) (Du, H., et al. (2009) Bioorg. Med. Chem. Lett. 19, 6196-9; Goto, M., et al. (2009) J. Pharmacol. Exp. Ther. 331, 485-95). […] It was further shown that the addition of a methyl substituent at the δ position to the enone enhanced the metabolic stability with a tolerable loss of activity (10 fold) (Du, H., et al. (2009) Bioorg. Med. Chem. Lett. 19, 6196-9). […]

VEGFR2 [2] = target: T1, VEGFR2 (Homo sapiens, UniProt P35968); experiment: biochemical inhibition of VEGF-R2; conditions: FIG. 20
Description: It should be noted that as these compounds are expected to be irreversible inhibitors, the measured IC50 will depend on the procedure used and caution should be applied in comparing data from experiments performed under different conditions. To obtain a value which best reflects the rate of inactivation, the substrate and inhibitor were added simultaneously to the kinase solution. The data is shown in FIG. 9 (kinases have been ranked from the highest to least inhibited). As evident from FIG. 9, there is very little difference in relative selectivity of kinase inhibition throughout the library under these conditions. […] Overall, the trend of structure activity relationship which emerged from this screen is that the chiral methyl group at the ester position, while not essential, does provide higher activity (entry 6 vs. 10, 7 vs. 11 and 8 vs. 12). Substitution at the adjacent position with a hydroxyl group (entry 14 vs. 7) or at the β-position of the enone with a methyl abrogated activity (15-19). […] The trend of activity for the three natural products can be ranked as follows: alkene=epoxide>alkane. […] The two modifications of R^2 tested were beneficial in certain combinations. For example, the extra hydroxyl group present in fragment i does afford a significant (10 fold) gain of activity (8 vs. 7) in combination with fragment a. […]

[3] = isomerization of the enone under acid deprotection conditions; assay type: physicochemical; conditions: prolonged reaction times
Description: The synthesis commenced with the straightforward conversion of ester 5 into fluoroenal 7 via aldehyde 6 relying on a Horner-Wadsworth-Emmons reaction with triethyl 2-fluoro-2-phosphonoacetate to install the desired E-fluoroenoal (FIG. 19). Reaction of aldehyde 7 with […] afforded the desired alcohol as a 1:1 diasteromeric mixture which was reduced to the cis-alkene using Lindlar's catalyst (H2, Pd/CaCO3) to afford compound 9. As the hydroxyl group will ultimately be oxidized to the ketone, the lack of selectivity is inconsequential. Benzoyl protection of alcohol 9 thus afforded 10 wherein the terminal OPMB was converted to an iodide 11 (DDQ; I2, PPh3, imidazole). Attempts to engage this compound in alkylation chemistry with a phenol led to rapid elimination of the iodide to give a conjugated triene (product not shown). To circumvent this elimination which was thought to be facilitated by the presence of the alkene, compound 10 was dihydroxylated (2.5:1 dr in favor of the desired isomer 12) and converted to acetonide 13. Conversion of the terminal protected PMB ether into an iodide afforded the key intermediate 14. Following previously established chemistry, fragment 14 was coupled to the aromatic moiety 15 bearing a benzylic selenide by alkylation followed by oxidation/elimination of the selenide to afford 17. […]

VEGFR2 [4] = target: T1, VEGFR2; experiment: cellular inhibition of VEGFR2; assay type: cell-based; conditions: triplicate
Description: FIG. 21. […] Assays were performed in triplicate.
To gage the undiscriminate reactivity of these enone resorcylic acids with thiols, fluoroenone 2 and the parent analogue lacking the fluoride were treated with one equivalent of DTT (2 mM) as a prototypical thiol nucleophile in PBS (pH 7.4) containing 1% DMSO. […] With fluoroenone 1 and 2 in hand, we tested their efficacy against VEGF-R2 which was frequently found to be the most inhibited kinase in our profile of cis-enone resorcylic acid library (Dakas, P. Y., et al. (2007) Angew. Chem. Int. Ed. Engl. 46, 6899-902; Jogireddy, R., et al. (2009) Chem. Eur. J. 15, 11498-506) and KIT which represents a less inhibited kinase. […] Their cellular activity against VEGF-R2 did parallel the biochemical activity. […] During the course of our investigation, a similar modification was reported by researchers from Esai (Du, H., et al. (2009) Bioorg. Med. Chem. Lett. 19, 6196-9) however, their medicinal chemistry efforts focused the inhibition of inflammation related pathways (MEKs and their down-stream regulatory effect on cytokines) (Du, H., et al. (2009) Bioorg. Med. Chem. Lett. 19, 6196-9; Goto, M., et al. (2009) J. Pharmacol. Exp. Ther. 331, 485-95). […]

MEK1 = MEK1 (Homo sapiens, UniProt Q02750); conditions: cited from earlier work
ERK2 = ERK2 (Homo sapiens, UniProt P28482); conditions: covalent Michael adduct with cys166; cited from earlier work
[5] = in vivo; cited from earlier work
colon and lung tumors = conditions: mice bearing colon and lung tumors; cited from earlier work
RENCA-LN cells = experiment: RENCA cell proliferation assay; assay type: cell-based, Murine
Description: Murine RENCA cells were originally obtained from a tumor that arose spontaneously in the kidney of BALB/c mice. Histologically, RENCA consists of granular cell type adenocarcinoma, which is pleomorphic with large nuclei. To obtain RENCA-LN, RENCA cells were transduced using a retrovirus encoding a luciferase-neomycin fusion protein and selected using 1 mg/ml G418. RENCA-LN cells were plated with 1.500 cells/150 μl/well in DMEM supplemented with 10% FCS in 96 well culture dishes. The following day the serial diluted test samples (from 1 mM to 0.1 μM in DMSO) were mixed with medium (1:25) and 50 μl of the mix was added to each well of the cultured cells (1:4) resulting in a final DMSO concentration of 1%. Cells were grown for 72 h at 10% CO2 and 37° C. After 72 h RENCA-LC cells were lysed in 100 μL luciferase assay buffer, and 10 μl of the lysate was assayed for luciferase activity. The mean value of the low controls of each 96 well cell culture plate represents the background which was subtracted from all other data points of the respective plate. Raw data were converted into percent proliferation relative to the high control, which were set to 100%. […] determination was done with GraphPad Prism 5.01 software with constrain of bottom to 0 and top to 100 using a nonlinear regression curve fit with variable hill slope. The equation is a four-parameter logistic equation. […]

[6] = test system: orthotopically implanted RENCA-LN cells; experiment: orthotopic murine renal cell carcinoma (RENCA) model, in vivo efficacy; conditions: for tumor growth by bioluminescence and primary tumor volume: 20 mg/kg i.p.
Description: RENCA-LN cells were obtained and cultured as described above. Sixty female BALB/c mice of 5 to 6 weeks were orthotopically implanted RENCA-LN cells into the left kidney (4×10^5 cells in 25 μl aliquots into the subcapsular space through a flank incision, Day 0). The mice were randomly divided into 5 groups of 12 mice each. On day 2, therapy was initiated. Animals in the vehicle control group (group 1) received 10 ml/kg Vehicle (PBS w/o Ca/Mg, 10% DMSO, 40% PEG-300) i.p. once daily until day 19. Animals of positive control group (group 2) received 40 mg/kg Sunitinib (Sutent®) p.o. once daily until day 20. Animals of treatment group 3 and 4 received 20 mg/kg of 3 once daily and every other day respectively (i.p.). Animals of treatment group 5 received 20 mg/kg of 5 once daily (i.p.). Due to partial weight loss, therapy in Groups 3 and 5 was suspended on days 11 and 12 and stopped on day 17. On day 20, the study was terminated and a necropsy performed. All animals were weighted, anaesthetised by isoflurane and killed by exsanguination. Two animals in group 1 were found dead on day 19 and 1 animal in group 3 and 5 on day 11 and 9 respectively. At necropsy, primary tumor weight and volume, lung weight and number of lung metastases were determined. Primary tumor tissues were collected and divided into two parts. One part of each tumor was snap-frozen in liquid nitrogen and stored at −80° C. whereas the other part was analyzed via ex vivo bioluminescence imaging. During the course of the study, the growth of the orthotopically implanted RENCA tumors was monitored on days 7, 14 and 19 using in vivo bioluminescence imaging. For this purpose, luciferin was injected intraperitoneally (i.p.) into the mice and light emission was measured post injection (10 min) using a NightOWL LB 981 bioluminescence imaging system (Berthold Technologies, Germany). The migration of RENCA tumor cells into the lung (metastasis) was analyzed post necropsy by counting nodules and using the luciferase assay. For this purpose, lungs were collected, homogenized, and assayed for luciferase activity using the kit from Promega (E1501) according to the manufacturer's instructions. Protein concentrations were determined using a Bradford assay and used to normalize luciferase activities (except for the primary tumor). A histological examination of the tumor vasculature was performed. For this purpose, cryosections of primary tumor tissues (thickness=5-10 μm) from the snap-frozen portion of the organ and blood vessels were visualized by immunohistochemical staining for CD 31 (PECAM-1; PharMingen, San Diego, Calif.). […] Statistical analysis of efficacy data was done using the Mann Whitney test.

dose finding study = assay type: in vivo
Description: (§1) As a bench mark, the natural product LL Z-1640-2 was also included in the assay. […] Compound 3 and 5 were selected as prototypical examples of modified RALs for further investigations. As described in the method section, both of these compounds derived from a common synthetic intermediate and can be readily prepared in gram quantities. […] Primary tumor weight confirmed these observations. A key objective of this study was to measure the effect of these compounds on metastasis. Upon termination of the study, the lungs were inspected for metastatic nodules and the ex-vivo luciferase activity of lung homogenates was measured. […] It should be noted that these compounds were also shown to inhibit the inflammation pathways which have been implicated in facilitating metastasis.

[7] = solubility in aqueous buffers; assay type: physicochemical; conditions: compared with 5
Description: as §1

plasma half-life = assay type: in vitro ADME
VEGFRs = experiment: KinomeScan kinase selectivity profile (50 kinases): VEGFRs; assay type: binding; conditions: 1 μM
Description: The selectivity profile was measure using the KinomeScan™ technology (http://www.kinomescan.com/) based on active-site dependent competition binding assay (Karaman, M. W., et al. (2008) Nat. Biotechnol. 26, 127-32; Fabian, M. A., et al. (2005) Nat. Biotechnol. 23, 329-36). Compounds 3 and 5 were profiled against a panel of 50 kinases including 42 kinases from the group of 48 kinases predicted by Santi et al. (Schirmer, A., et al. (2006) Proc. Natl. Acad. Sci. USA 103, 4234-9) to be targeted by hypothemycin and 5 mutants of FLT3 as well as 3 mutants of KIT. Both compounds were assayed at 1 μM. The results are expressed as a percentage of signal between a negative (DMSO) and positive (know binder) control [(test compound−positive control)/([…])×100].

T1 sequence (P35968 20-1356, species assumed): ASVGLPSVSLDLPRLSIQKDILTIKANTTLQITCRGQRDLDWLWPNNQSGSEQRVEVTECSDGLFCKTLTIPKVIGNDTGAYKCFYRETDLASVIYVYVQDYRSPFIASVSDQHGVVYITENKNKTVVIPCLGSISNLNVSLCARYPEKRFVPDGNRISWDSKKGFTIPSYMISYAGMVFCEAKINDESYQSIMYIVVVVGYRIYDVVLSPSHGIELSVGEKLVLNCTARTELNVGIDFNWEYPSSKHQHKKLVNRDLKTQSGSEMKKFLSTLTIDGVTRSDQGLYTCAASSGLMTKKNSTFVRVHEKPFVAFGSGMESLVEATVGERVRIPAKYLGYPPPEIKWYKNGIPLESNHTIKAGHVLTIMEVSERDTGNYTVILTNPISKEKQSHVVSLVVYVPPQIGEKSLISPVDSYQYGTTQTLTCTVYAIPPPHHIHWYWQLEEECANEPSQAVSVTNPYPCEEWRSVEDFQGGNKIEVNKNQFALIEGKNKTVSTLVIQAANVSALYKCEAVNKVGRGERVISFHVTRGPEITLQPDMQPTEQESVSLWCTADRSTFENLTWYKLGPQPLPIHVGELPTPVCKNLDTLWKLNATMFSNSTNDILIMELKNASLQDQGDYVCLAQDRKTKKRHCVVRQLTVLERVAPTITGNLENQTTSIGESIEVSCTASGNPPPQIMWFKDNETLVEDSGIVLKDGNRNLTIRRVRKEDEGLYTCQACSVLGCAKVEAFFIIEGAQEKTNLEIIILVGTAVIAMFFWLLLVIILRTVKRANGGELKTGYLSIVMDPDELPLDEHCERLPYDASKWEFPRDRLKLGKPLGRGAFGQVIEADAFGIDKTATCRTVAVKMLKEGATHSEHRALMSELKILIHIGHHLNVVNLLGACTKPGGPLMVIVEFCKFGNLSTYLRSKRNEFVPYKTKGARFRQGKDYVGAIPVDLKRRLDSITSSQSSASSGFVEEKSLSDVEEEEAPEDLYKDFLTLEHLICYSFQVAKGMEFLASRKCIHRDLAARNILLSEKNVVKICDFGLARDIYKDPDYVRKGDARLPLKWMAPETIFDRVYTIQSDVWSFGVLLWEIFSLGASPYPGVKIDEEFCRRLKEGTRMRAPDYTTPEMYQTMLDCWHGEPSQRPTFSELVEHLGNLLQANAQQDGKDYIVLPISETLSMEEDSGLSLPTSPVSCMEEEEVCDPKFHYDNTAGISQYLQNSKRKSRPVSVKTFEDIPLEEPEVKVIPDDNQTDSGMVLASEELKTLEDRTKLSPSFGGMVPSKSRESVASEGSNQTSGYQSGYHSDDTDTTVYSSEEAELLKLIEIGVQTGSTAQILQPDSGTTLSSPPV
ERK2, sequence (P28482 whole entry, species assumed): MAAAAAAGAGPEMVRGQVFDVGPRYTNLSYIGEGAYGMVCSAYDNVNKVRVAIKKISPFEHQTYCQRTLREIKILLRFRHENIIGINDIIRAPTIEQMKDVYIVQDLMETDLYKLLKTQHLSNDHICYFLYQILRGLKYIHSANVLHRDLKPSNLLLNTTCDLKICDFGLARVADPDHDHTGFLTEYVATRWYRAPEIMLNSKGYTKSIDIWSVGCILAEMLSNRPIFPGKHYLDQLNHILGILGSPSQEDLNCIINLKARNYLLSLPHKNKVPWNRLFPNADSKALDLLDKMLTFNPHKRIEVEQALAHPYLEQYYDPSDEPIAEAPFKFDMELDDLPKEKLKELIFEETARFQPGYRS
MEK1, sequence (Q02750 whole entry): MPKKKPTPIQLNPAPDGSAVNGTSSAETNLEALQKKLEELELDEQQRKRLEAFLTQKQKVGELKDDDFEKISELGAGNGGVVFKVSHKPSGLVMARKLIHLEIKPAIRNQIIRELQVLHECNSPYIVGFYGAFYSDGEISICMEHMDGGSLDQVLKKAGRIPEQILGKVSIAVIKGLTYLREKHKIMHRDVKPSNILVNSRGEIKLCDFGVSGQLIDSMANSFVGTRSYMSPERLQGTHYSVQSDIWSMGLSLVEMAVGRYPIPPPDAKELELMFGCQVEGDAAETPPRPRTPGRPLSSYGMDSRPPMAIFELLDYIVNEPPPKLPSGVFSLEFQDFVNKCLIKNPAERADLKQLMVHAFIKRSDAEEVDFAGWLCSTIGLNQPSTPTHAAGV

SMILES: C[C@H]1C/C=C(/F)C(=O)[C@@H](O)[C@@H](O)CCOc2cc(O)cc(O)c2C(=O)O1 [fluoroenone 2]
- reactivity with DTT compared with parent analogue lacking the fluoride [1]: reacting slower
- IC50 (VEGFR2 [2]): 60.5 nM

SMILES: C[C@H]1C/C=C(/F)C(=O)[C@@H](O)[C@@H](O)C/C=C/c2cc(O)cc(O)c2C(=O)O1 [fluoroenone 1]
- isomerization (epimerization) of the fluoroenone [3]: no trace of isomerization was observed
- IC50 (VEGFR2 [2]): 6.8 nM
- IC50 (VEGFR2 [4]): 17 nM

SMILES: CCNc1cc(O)c2c(c1)/C=C/C[C@H](O)[C@H](O)C(=O)/C=C\[C@@H](C)[C@H](C)OC2=O [E6201]
- selectivity for MEK1 relatively to PDGFRβ (MEK1): > 200 fold

SMILES: COc1cc(O)c2c(c1)[C@H]1O[C@@H]1C[C@H](O)[C@H](O)C(=O)/C=C\C[C@H](C)OC2=O [hypothemycin]
- inactivation of ERK2 (ERK2): irreversibly inactivates ERK2
- efficacy in animal models [5]: effective in animal models
- tumor growth inhibition (colon and lung tumors): only modest growth inhibition

SMILES: C[C@H]1C/C=C\C(=O)[C@@H](O)[C@@H](O)CCOc2cc(O)cc(O)c2C(=O)O1 [1agh]
- efficacy in inhibiting renal carcinoma cell line compared with natural product LL Z-1640-2 (RENCA-LN cells; FIG. 14): as effective as the natural product
- IC50 (RENCA-LN cells; Mus musculus, Renca, FIG. 12, read-out: IC50, renal carcinoma line (RENCA)): 100 to 500 nM
- tumor vasculature histology (CD-31 staining), angiogenesis ([6]; 20 mg, q1d): strong inhibition of angiogenesis
- tumor growth in mice ([6]; 20 and 10 mg/kg): clear reduction in tumor growth
- tumor growth by bioluminescence and primary tumor volume ([6]; administered every other day): marginal decrease activity
- animal weights decrease ([6]; between day 2 and day 5, q1d): 8%
- lung metastasis (metastatic nodules) ([6]; compared with untreated group, lungs inspected at termination): A similar result
- tumor growth by bioluminescence and primary tumor volume ([6]; daily dosing): highly significant reduction of tumor growth
- luciferase activity from lung homogenates ([6]; ex vivo, compared with untreated group): A similar result
- tolerability (dose finding study; 25 mg/kg): tolerated
- toxicity at high dose (dose finding study; 75 mg/kg): systemic toxicity
- solubility in aqueous buffers [7]: notably more soluble in aqueous buffers than 5
- plasma half-life (plasma half-life): short plasma half life
- inhibition of VEGFRs in kinase profile (VEGFRs): strongly inhibited
